Data published in US7910577B2 (priority 2004, dated 2011).

Legend:
[1] = cited from earlier work
[2] = particle size, Horiba LA 910 particle size analyzer; settings: unmilled drug crystals, before incorporation into nanoparticulate formulation

For `Cc1cc2c(s1)Nc1ccccc1N=C2N1CCN(C)CC1` [Olanzapine, 2-methyl-4-(4-methyl-1-piperazinyl) -10H-thieno[2,3-b][1,5]benzodiazepine], the solubility in water [1] is listed as “practically insoluble in water” and the mean particle size [2] is listed as 137.08 microns.
